Key:
[1] = test system: MDA-MB-231 human breast cancer orthotopic xenograft; test: Single agent anti-tumor activity, MDA-MB-231 human breast cancer orthotopic xenograft (Example 1); assay type: in vivo, athymic nude mice; conditions: day 71 post implantation; Compound B 150 mg/kg po qw days 50, 57, 64; Compound A 20 mg/kg iv days 50, 54, 58; p<0.05 compared to vehicle controls
Description: Treatment started on day 50 following orthotopic implantation of 7.5×10^6 MDA-MB-231 human breast cancer cells into the mammary fat pad. Starting tumor volume averaged 160 mm^3 (range=76 to 286); n=8/group. […] The vehicle for […] is 10% Tris-HCl buffer and 90% 1×PBS, Statistical analysis performed on delta tumor volumes on day 71 post implantation using a One-way ANOVA followed by a post hoc Tukey test.

TNF mRNA = conditions: Colon 38 tumor bearing mice (Joseph WR, 1999); cited from earlier work
[2] = test system: HS944.t human melanoma xenograft; conditions: B 100 mg/kg po qw; A 15 mg/kg iv; combination; days 14 and 21
Description: Treatment started on day 14 following subcutaneous implantation of 5.0×10^6 Hs944.t human melanoma cancer cells in 50% basement membrane matrix. Starting tumor volume averaged 245 mm^3 (range=146 to 321); n=8/group. In this study, (s)—N—((S)-1-cyclohexyl-2-{(S)-2-[4-(4-fluoro-benzoyl)-thiazol-2-yl]-pyrrolidin-1-yl}-2-oxo-ethyl)-2-methylamino-propionamide was administered orally (po) at 100 mg/kg, qw, 5,6-dimethylxanthenone-4-acetic acid was administered intravenously (iv) at 15 mg/kg, or (S)—N—((S)-1-cyclohexyl-2-{(S)-2-[4-(4-fluoro-benzoyl)-thiazol-2-yl]-pyrrolidin-1-yl}-2-oxo-ethyl)-2-methylamino-propionamide and 5,6-dimethylxanthenone-4-acetic acid were administered in combination on days 14 and 21 post implantation, Vehicle control for (S)—N—((S)-1-cyclohexyl-2-{(S)-2-[4-(4-fluoro-benzoyl)-thiazol-2-yl]-pyrrolidin-1-yl}-2-oxo-ethyl)-2-methylamino-propionamide is 30% 0.1N HCl and 70% 100 mM sodium acetate buffer, pH 4.63, Vehicle control for 5,6-dimethylxanthenone-4-acetic acid is 10% 1× Tris-HCl and 90% 1×PBS, Statistical analysis performed on tumor volumes from day 14-27 post implantation using a repeated measures MANOVA test.

mouse TNF = test: Mouse TNF in MDA-MB-231 breast xenograft tissue after treatment; assay type: in vivo; conditions: tumors collected 6 hrs after final dose; n=4, no statistical analysis
Source text: (§1) Due to the small sample size (n=4), statistical analysis was not performed.

human TNF = test: Human TNF in MDA-MB-231 tumor lysates after treatment; assay type: in vivo; conditions: tumors collected 6 hrs after final dose; n=4, no statistical analysis
Source text: as §1

| Compound | single agent anti-tumor activity (delta tumor volumes vs vehicle controls) [1] | TNF mRNA in tumor, spleen, and liver (TNF mRNA) | surviving animals at study termination [2] | mouse TNF in xenograft tissue (mouse TNF) | human TNF in MDA-MB-231 tumor lysates (human TNF) |
| --- | --- | --- | --- | --- | --- |
| Cc1ccc2c(=O)c3cccc(CC(=O)O)c3oc2c1C [Compound A, 5,6-dimethylxanthenone-4-acetic acid] | demonstrated single agent anti-tumor activity | increase TNF mRNA | 7/8 | increase in mouse TNF |  |
| CN[C@@H](C)C(=O)N[C@H](C(=O)N1CCC[C@H]1c1nc(C(=O)c2ccc(F)cc2)cs1)C1CCCCC1 [Compound B, (S)—N—((S)-1-Cyclohexyl-2-{(S)-2-[4-(4-fluoro-benzoyl)-thiazol-2-yl]-pyrrolidin-1-yl}-2-oxo-ethyl)-2-methylamino-propionamide] | demonstrated single agent anti-tumor activity |  |  |  | increase in human TNF |
